Data as given in patent publication US4232035A, “Carbamate pesticidal compounds compositions and methods of use” (priority 1975, dated 1980).

Experiments:
Type in all cases: in vivo
[1] = system: Mexican bean beetle (Epilachna varivestis, Muls.); test: Mexican Bean Beetle Leaf Spray Test; parameters: key: A: excellent control; B: partial control; C: no control; settings: 500 parts per million leaf spray; fourth instar larvae; three days
Experimental: (§1) Suspensions of the test compounds were prepared by dissolving one gram of compound in 50 milliliters of acetone in which had been dissolved 0.1 gram (10 percent of the weight of compound) of an alkylphenoxy polyethoxyethanol surfactant, as an emulsifying or dispersing agent. The resulting solution was mixed into 150 milliliters of water to give roughly 200 milliliters of a suspension containing the compound in finely divided form. The thus-prepared stock suspension contained 0.5 percent by weight of compound. The test concentrations in parts per million by weight employed in the tests described hereinbelow were obtained by appropriate dilutions of the stock suspension with water. The test procedures were as follows:
Fourth instar larvae of the Mexican bean beetle (Epilachna varivestis, Muls.), reared on Tendergreen bean plants at a temperature of 80°±5° F. and 50±5 percent relative humidity, were the test insects.
The test compounds were formulated by diluting the stock suspension with water to give a suspension containing 500 parts of test compound per million parts of final formulation. Potted Tendergreen bean plants of standard height and age were placed on a revolving turntable and sprayed with 100-110 milliliters of test compound formulation by use of a DeVilbiss spray gun set at 10 psig air pressure. This application, which lasted 25 seconds, was sufficient to wet plants to run-off. As a control, 100-110 milliliters of a water-acetone-emulsifier solution containing no test compound were also sprayed on infested plants. When dry, the paired leaves were separated and each was placed in a 9 centimeter Petri dish lined with moistened filter paper. Five randomly selected larvae were introduced into each dish, and the dishes were closed. The closed dishes were labeled and held at a temperature of 80°±5° F. for three days. Although the larvae could easily consume the leaf within 24 to 48 hours, no more food was added. Larvae which were unable to move the length of the body, even upon stimulation, were considered dead.

[2] = system: house flies (Musca domestica, L.); test: Fly Bait Test; parameters: key: A: excellent control; B: partial control; C: no control; settings: 500 parts per million bait in sugar solution; twenty four hours
Experimental: as §1
Four to six day old adult house flies (Musca domestica, L.) reared according to the specifications of the Chemical Specialties Manufacturing Association (Blue Book, McNair-Dorland Co., N.Y. 1954; pages 243-244, 261) under controlled conditions of 80°±5° F. and 50±5 percent relative humidity, were the test insects. The flies were immobilized by anesthetizing with carbon dioxide and twenty five immobilized individuals, males and females, were transferred to a cage consisting of a standard food strainer about five inches in diameter which was inverted over a wrapping-paper-covered surface. The test compounds were formulated by diluting the stock suspension with a 10 percent (by weight) sugar solution to give a suspension containing 500 parts of test compound per million parts of final formulation, by weight. Ten milliliters of the test formulation were added to a souffle cup containing a one-inch square of an absorbent cotton pad. This bait cup was introduced and centered on the blotting paper under the food strainer prior to admitting the anesthetized flies. The caged flies were allowed to feed on the bait for twenty four hours, at a temperature of 80°±5° F. and the relative humidity of 50±5 percent.

[3] = system: root-knot nematode (Meloidogyne incognita var. acrita); test: Nematode Test; parameters: key: 1: severe galling; equal to untreated control; 2: moderate galling; 3: light galling; 4: very light galling; 5: no galling; settings: 10 ml of 500 parts per million formulation per jar of soil; cucumber indicator crop, approximately three weeks
Experimental: as §1
Infective migratory larvae of the root-knot nematode, (Meloidogyne incognita var. acrita) were reared in the greenhouse on roots of Rutgers variety tomato plant. Infected tomato plants were removed from the culture and the roots were chopped very finely. A small amount of inoculum from the roots was added to pint Mason jars containing approximately 180 cc of soil. The jars containing the inoculum and soil were capped and incubated for one week at room temperature. During this period eggs of the nematode hatched and the larvae forms migrated into the soil.
The test compounds were formulated by diluting the stock suspension with water to give a suspension containing 500 parts of test compound per million parts of final formulation. 10 milliliters of the test formulation was added to each of two jars for each dosage treated. As a control 10 milliliters of a water-acetone-emulsifier solution containing no test compound was also added to jars containing nematode larvae. The jars were capped and the contents thoroughly mixed on a kale mill for five minutes. The jars remained capped at room temperature for a period of 48 hours and the contents were then transferred to 3 inch pots. Subsequently, the pots were seeded to cucumber as an indicator crop and placed in the green house where they were cared for in the normal fashion for growing potted cucumber for approximately three weeks. These cucumber plants were then removed from the pots, the soil washed from the roots and the amount of galling visually rated.

[4] = system: bean aphid (Aphis fabae Scop.); test: Bean Aphid Foliage Spray Test; parameters: key: A: excellent control; B: partial control; C: no control; settings: 500 parts per million foliage spray; 24 hour holding period
Experimental: as §1
Adults and nymphal stages of the bean aphid (Aphis fabae Scop.) reared on potted dwarf nasturtium plants at 65°-70° F. and 50-70 percent relative humidity, constituted the test insects. For testing purposes, the number of aphids per pot was standardized to 100-150 by trimming plants containing excess aphids.
The test compounds were formulated by diluting the stock suspension with water to give a suspension containing 500 parts of test compound per million parts of final formulation.
The potted plants (one pot per compound tested) infested with 100-150 aphids, were placed on a revolving turntable and sprayed with 100-110 milliliters of test compound formulation by use of a DeVilbiss spray gun set at 40 psig. air pressure. This application, which lasted 25 seconds, was sufficient to wet the plants to run-off. As a control, 100-110 milliliters of a water-acetone-emulsifier solution containing no test compound were also sprayed on infested plants. After spraying, the pots were placed on their sides on a sheet of white standard mimeograph paper which had been previously ruled to facilitate counting. Temperature and humidity in the test room during the 24 hour holding period were 65°-70° F. and 50-70 percent, respectively. Aphids which fell onto the paper and were unable to remain standing after being uprighted were considered dead. Aphids remaining on the plants were observed closely for movement and those which were unable to move the length of the body upon stimulation by prodding were considered dead. Percent mortality was recorded for various concentration levels.

[5] = system: southern armyworm (Prodenia eridania, (Cram.)); test: Southern Armyworm Leaf Spray Test; parameters: key: A: excellent control; B: partial control; C: no control; settings: 500 parts per million leaf spray; three days
Experimental: as §1
Larvae of the southern armyworm (Prodenia eridania, (Cram.)), reared on Tendergreen bean plants at a temperature of 80°±5° F. and a relative humidity of 50±5 percent, constituted the test insects.
The test compounds were formulated by diluting the stock suspension with water to give a suspension containing 500 parts of test compound per million parts of final formulation. Potted Tendergreen bean plants of standard height and age were placed on a revolving turntable and sprayed with 100-110 milliliters of test compound formulation by use of a DeVilbiss spray gun set at 10 psig air pressure. This application, which lasted 25 seconds, was sufficient to wet plants to run-off. As a control, 100-110 milliliters of a water-acetone-emulsifier solution containing no test compound were also sprayed on infested plants. When dry, the paired leaves were separated and each one was placed in a 9 centimeter Petri dish lined with moistened filter paper. Five randomly selected larvae were introduced into each dish and the dishes were closed. The closed dishes were labeled and held at 80°-85° F. for three days. Although the larvae could easily consume the whole leaf within twenty-four hours, no more food was added. Larvae which were unable to move the length of the body, even upon stimulation by prodding, were considered dead. Percent mortality was recorded for various concentration levels.

[6] = system: two-spotted mite (Tetranychus urticae Koch); test: Mite Foliage Spray Test; parameters: key: A: excellent control; B: partial control; C: no control; settings: 500 parts per million foliage spray; six days
Experimental: as §1
Adults and nymphal stages of the two-spotted mite (Tetranychus urticae Koch), reared on Tendergreen bean plants at 80±5 percent relative humidity, were the test organisms. Infested leaves from a stock culture were placed on the primary leaves of two bean plants six to eight inches in height, growing in a two-and-a-half inch clay pot. 150-200 Mites, a sufficient number for testing, transferred from the excised leaves to the fresh plants in a period of twenty four hours. Following the twenty four hour transfer period, the excised leaves were removed from the infested plants. The test compounds were formulated by diluting the stock suspension with water to give a suspension containing 500 parts of test compound per million parts of final formulation. The potted plants (one pot per compound) were placed on a revolving turntable and sprayed with 100-110 milliliters of test compound formulation by use of a DeVilbiss spray gun set at 40 psig. air pressure. This application, which lasted 25 seconds, was sufficient to wet the plants to run-off. As a control, 100-110 milliliters of a water solution containing acetone and emulsifier in the same concentrations as the test compound formulation, but containing no test compound, were also sprayed on infested plants. The sprayed plants were held at 80±5 percent relative humidity for six days, after which a mortality count of motile forms was made. Microscopic examination for motile forms was made on the leaves of the test plants. Any individual which was capable of locomotion upon prodding was considered living.

SMILES	M. Bean Beetle, pesticidal activity rating [1]	H. Fly, pesticidal activity rating [2]	Nematodes, nematocidal toxicity rating (galling) [3]	Aphid, pesticidal activity rating [4]	S. Armyworm, pesticidal activity rating [5]	Mite, pesticidal activity rating [6]
CN(SSc1ccc(Cl)cc1)C(=O)ON=C1SC(C)(C)C(=O)N1C	A	B	1	A	A	C
CC(C)SSN(C)C(=O)ON=C1SCOC1C (stereo not drawn)	A	A	1	A	A	A
Cc1ccc(SSN(C)C(=O)ON=C2SC(C)(C)C(=O)N2C)cc1	A	C	1	C	A	C
Cc1ccc(SSN(C)C(=O)ON=C2SCOC2C)cc1 (stereo not drawn)	A	A	1	A	A	A
CC1OCSC1=NOC(=O)N(C)SSC(C)(C)C (stereo not drawn)	A	A	1	A	A	A
CC1OCSC1=NOC(=O)N(C)SSc1ccccc1 (stereo not drawn)	A	A	2	A	A	A
CN(SSC(C)(C)C)C(=O)ON=C1CSCCS1	A	A	1	A	A	A
CCCCCCCCSSN(C)C(=O)ON=C1SCOC1C (stereo not drawn)	A	A	1	A	A	A
CSSN(C)C(=O)ON=C1SCOC1C (stereo not drawn)	A	A	1	A	A	A
CN(SSc1ccccc1)C(=O)ON=C1SC(C)(C)C(=O)N1C	A	B	1	A	A	C
CN(SSC1CCCCC1)C(=O)ON=C1SC(C)(C)C(=O)N1C	A	C	2	A	A	C
